Measured values as given in publication PMC6345978, “The bacterial MrpORP is a novel Mrp/NBP35 protein involved in iron-sulfur biogenesis” (Scientific Reports, 2019).

How the values were obtained:
[1] = target: T1, MrpORP (Dde3202) (Oleidesulfovibrio alaskensis, UniProt Q30WF0); assay: UV-visible spectroscopy after in vitro Fe-S reconstitution; assay type: binding; conditions: anaerobic, DTT, Fe2+ with cysteine/IscS; a second cluster in the Di-Nase domain also contributes
T1 construct: gene Dde_3202; full length, His-tagged (pJF119-3202His), produced in E. coli TG1, isolated aerobically and reconstituted; 43 kDa; [4Fe-4S] proposed between two monomers
T1 sequence (Q30WF0 1-415): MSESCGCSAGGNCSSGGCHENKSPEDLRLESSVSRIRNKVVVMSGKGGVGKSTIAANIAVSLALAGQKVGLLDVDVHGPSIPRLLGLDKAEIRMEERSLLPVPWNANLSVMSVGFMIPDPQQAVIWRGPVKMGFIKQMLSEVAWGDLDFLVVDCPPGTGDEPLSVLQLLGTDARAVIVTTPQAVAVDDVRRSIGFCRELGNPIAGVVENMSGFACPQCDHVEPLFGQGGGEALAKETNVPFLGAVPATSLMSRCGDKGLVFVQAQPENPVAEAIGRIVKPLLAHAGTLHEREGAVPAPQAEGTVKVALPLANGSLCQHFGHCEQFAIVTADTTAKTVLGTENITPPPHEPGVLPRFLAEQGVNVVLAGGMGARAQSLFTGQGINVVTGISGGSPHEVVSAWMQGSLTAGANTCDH

[2] = target: T2, Orp3-Orp4-Orp8 complex (Nitratidesulfovibrio vulgaris, UniProt Q72A93+Q72A94); assay: Fe-S cluster transfer from holo-MrpORP, Ni-NTA separation, UV-visible spectroscopy; assay type: binding; conditions: anaerobic, DTT; cluster type from sequence motifs of Orp3 and Orp4, distribution between chains not resolved
T2 construct: gene DVU_2103; His-tagged Orp3 (pBMC6C3::2103His) co-purified with Orp4 and Orp8 from DvH, metal centres removed; with Orp8, dinitrogenase iron-molybdenum cofactor biosynthesis domain protein
T2 sequence (Q72A94 1-287): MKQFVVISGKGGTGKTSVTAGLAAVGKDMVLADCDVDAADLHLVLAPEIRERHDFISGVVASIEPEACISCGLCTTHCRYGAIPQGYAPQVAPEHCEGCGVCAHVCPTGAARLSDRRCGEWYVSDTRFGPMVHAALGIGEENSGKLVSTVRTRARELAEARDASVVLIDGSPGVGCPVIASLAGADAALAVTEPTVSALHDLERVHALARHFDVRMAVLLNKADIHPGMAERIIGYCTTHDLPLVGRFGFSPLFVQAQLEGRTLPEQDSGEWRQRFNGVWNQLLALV
T2 sequence (Q72A93 1-301): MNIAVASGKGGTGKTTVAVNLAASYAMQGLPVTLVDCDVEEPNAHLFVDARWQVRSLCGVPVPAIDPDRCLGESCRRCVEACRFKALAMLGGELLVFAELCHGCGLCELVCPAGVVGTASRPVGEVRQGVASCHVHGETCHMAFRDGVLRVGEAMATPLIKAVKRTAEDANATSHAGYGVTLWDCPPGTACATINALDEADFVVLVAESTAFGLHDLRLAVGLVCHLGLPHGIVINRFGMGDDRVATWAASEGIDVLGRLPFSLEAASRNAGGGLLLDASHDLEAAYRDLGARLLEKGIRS
T2 sequence (Q72A89 1-119 partner): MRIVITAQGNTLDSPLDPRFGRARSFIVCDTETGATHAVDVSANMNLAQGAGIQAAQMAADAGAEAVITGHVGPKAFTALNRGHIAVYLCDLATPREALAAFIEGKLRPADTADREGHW

Which results are given for [4Fe-4S] cluster?
A400/A280 [1]: 0.3; A400/A280 [2]: 0.42
